Bridge positions count the residues as written; N and C are the ends. Ends that are not written are not given here. PEG = not defined here
Key:
normal ICR mice [1] = test: In vivo hypoglycemic activity of GLP-1 analogues, subcutaneous administration, oral glucose loading; set-up: species or system mouse; settings: normal ICR mice, 1 μmol/kg s.c., glucose 2 g/kg by gavage
Description: FIG. 21. In vivo hypoglycemic activities of GLP-1 analogues by subcutaneous administration. Normal ICR mice were subcutaneously injected with GLP-1 and its analogues or corresponding volumes of saline (1.0 μmol/kg, n=10). After 30 min, glucose solution (2 g/kg) was administered by gavage, and blood was collected from the tail tip at 30, 60, and 120 min after glucose administration. Blood glucose was measured using glucose oxidase method, and blood glucose values and area under the blood glucose curve (AUC) were calculated at each timepoint.
The day before the experiment, all of the animals were fasted for 15-16 hours with water ad libitum. On the day of the experiment, the animals were randomly divided according to body weight (n=10). Firstly, the blood was collected from the tail tip at 0 hour, and then the animals were administered subcutaneously with GLP-1 analog (SEQ ID NOs: 194-201, 1 μmol/kg) or saline. After 30 minutes, the animals were administered by gavage with glucose solution (2 g/kg), and the blood was collected from the tail tip at 30, 60, and 120 minutes later. Blood glucose was measured using glucose oxidase method. The blood glucose and area under the blood glucose-time curve (AUC) were calculated.

normal ICR mice [2] = test: In vivo hypoglycemic activity of GLP-1 analogues, duodenal administration, oral glucose loading; set-up: species or system mouse; settings: normal ICR mice, 10 μmol/kg duodenal, glucose 2 g/kg by gavage
Description: FIG. 22. In vivo hypoglycemic activities of GLP-1 analogues by duodenal administration. Normal ICR mice were anesthetized with inhalation of ether, and the duodenum was surgically removed and injected with GLP-1 and its analogues or a corresponding volume of saline ([…], n=9-11), and finally the incision was sewed. After 15 min, glucose solution (2 g/kg) was administered by gavage, and blood was collected from the tail tips at 15, 30, and 60 min after glucose administration. Blood glucose was measured using glucose oxidase method, and blood glucose values and area under the blood glucose curve (AUC) were calculated at each timepoint.
Drug delivery technology can use enteric coating technology to achieve oral administration targeting the small intestine. In order to test the feasibility of direct small intestinal administration of GLP-1, the present invention designs duodenal administration. The experimental process is as follows: The day before the experiment, all of the animals were fasted for 15-16 hours with water ad libitum. On the day of the experiment, the animals were randomly divided according to body weight (n=9-11 or 14-15 for combined administration). Firstly, the blood was collected from the tail tip at 0 hours, and then the animals were anesthetized by inhaling ether. A small incision was made near the underside of the stomach using surgical scissors, and the duodenum was carefully removed and administered with GLP-1 analogs (SEQ ID NOs: 194-209, 10 μmol/kg) or saline. Finally, the wound was sutured. After 15 minutes, the glucose solution (2 g/kg) was administered by gavage, and the blood were collected from the tail tips at 15, 30, and 60 minutes after glucose administration. Blood glucose was measured using the glucose oxidase method. The blood glucose at each moment and area under the blood glucose-time curve (AUC) were calculated.
AUC mg×h/dL)=(BG0+BG15)×15/60+(BG15+BG30)×15/60+(BG30+BG60)×30/60. BG0, BG15, BG30, and BG60 represent blood glucose levels at 0, 15, 30, and 60 minutes after glucose loading, respectively.

Substance | hypoglycemic activity, subcutaneous injection (in words) (normal ICR mice [1]) | hypoglycemic activity, duodenal administration (in words) (normal ICR mice [2])
Cys-Gly-Arg-Ala-Thr-Lys-Ser-Ile-Pro-Pro-Ile-Cys-Phe-Gly-Gly-Gln-Arg-Phe-Ser-Arg-Gly-Gly-His-Ala-Glu-Gly-Thr-Phe-Thr-Ser-Asp-Val-Ser-Ser-Tyr-Leu-Glu-Gly-Gln-Ala-Ala-Lys-Glu-Phe-Ile-Ala-Trp-Leu-Val-Lys-Gly-Arg-Gly-Gly-Lys (CGRATKSIPPICFGGQRFSRGGHAEGTFTSDVSSYLEGQAAKEFIAWLVKGRGGK; Synthetic construct BT9-N-GLP-1) [SEQ ID NO: 199] | significantly reduced the blood glucose levels at 30 and 60 minutes after oral glucose loading and the AUC | did not influence the blood glucose levels
Gly-Arg-Cys-Thr-Lys-Ser-Ile-Pro-Pro-Ile-Cys-Phe-Pro-Gly-Gly-Gln-Arg-Phe-Ser-Arg-Gly-Gly-His-Ala-Glu-Gly-Thr-Phe-Thr-Ser-Asp-Val-Ser-Ser-Tyr-Leu-Glu-Gly-Gln-Ala-Ala-Lys-Glu-Phe-Ile-Ala-Trp-Leu-Val-Lys-Gly-Arg-Gly-Gly-Lys (GRCTKSIPPICFPGGQRFSRGGHAEGTFTSDVSSYLEGQAAKEFIAWLVKGRGGK; Synthetic construct BT1-N-GLP-1) [SEQ ID NO: 195] | significantly reduced the blood glucose levels at 30 and 60 minutes after oral glucose loading and the AUC | did not influence the blood glucose levels
Gly-Gln-Arg-Phe-Ser-Arg-Gly-Gly-His-Ala-Glu-Gly-Thr-Phe-Thr-Ser-Asp-Val-Ser-Ser-Tyr-Leu-Glu-Gly-Gln-Ala-Ala-Lys-Glu-Phe-Ile-Ala-Trp-Leu-Val-Lys-Gly-Arg-Gly-Gly-Lys-Gly-Arg-Cys-Thr-Lys-Ser-Ile-Pro-Pro-Ile-Cys-Phe-Pro (GQRFSRGGHAEGTFTSDVSSYLEGQAAKEFIAWLVKGRGGKGRCTKSIPPICFP; Synthetic construct N-GLP-1-BT1) [SEQ ID NO: 197] | significantly reduced the blood glucose levels at 30 and 60 minutes after oral glucose loading and the AUC | did not influence the blood glucose levels
Gly-Gln-Arg-Phe-Ser-Arg-Gly-Gly-His-Ala-Glu-Gly-Thr-Phe-Thr-Ser-Asp-Val-Ser-Ser-Tyr-Leu-Glu-Gly-Gln-Ala-Ala-Lys-Glu-Phe-Ile-Ala-Trp-Leu-Val-Lys-Gly-Arg-Gly-Gly-Lys-Gly-Cys-Gly-Arg-Ala-Thr-Lys-Ser-Ile-Pro-Pro-Ile-Cys-Phe (GQRFSRGGHAEGTFTSDVSSYLEGQAAKEFIAWLVKGRGGKGCGRATKSIPPICF; Synthetic construct N-GLP-1-BT9) [SEQ ID NO: 201] | significantly reduced the blood glucose levels at 30 and 60 minutes after oral glucose loading and the AUC | did not influence the blood glucose levels
PEG-Gly-Ile-Pro-Ile-Gly-Gly-His-Ala-Glu-Gly-Thr-Phe-Thr-Ser-Asp-Val-Ser-Ser-Tyr-Leu-Glu-Gly-Gln-Ala-Ala-Lys-Glu-Phe-Ile-Ala-Trp-Leu-Val-Lys-Gly-Arg-Gly-Gly-Lys-Gly-Cys-Gly-Arg-Ala-Thr-Lys-Ser-Ile-Pro-Pro-Ile-Cys-Phe ({PEG}-GIPIGGHAEGTFTSDVSSYLEGQAAKEFIAWLVKGRGGKGCGRATKSIPPICF; disulfide 41-52 (inferred); reading uncertain; also: printed as PEG-Gly-Ile-Pro-Ile-Gly-Gly-His-Ala-Glu-Gly-Thr-Phe-Thr-Ser-Asp-Val-Ser-Ser-Tyr-Leu-Glu-Gly-Gln-Ala-Ala-Lys-Glu-Phe-Ile-Ala-Trp-Leu-Val-Lys-Gly-Arg-Gly-Gly-Lys-Gly-Cys-Gly-Arg-Ala-Thr-Lys-Ser-Ile-Pro-Pro-Ile-Cys-Phe) [N-Terminal PEGylated SEQ ID NO: 200] | did not show any significant differences in their hypoglycemic activity compared to the unmodified molecules | 
PEG-Phe-Cys-Thr-Tyr-Ser-Ile-Pro-Pro-Gln-Cys-Tyr-Gly-Gly-Ile-Pro-Ile-Gly-Gly-His-Ala-Glu-Gly-Thr-Phe-Thr-Ser-Asp-Val-Ser-Ser-Tyr-Leu-Glu-Gly-Gln-Ala-Ala-Lys-Glu-Phe-Ile-Ala-Trp-Leu-Val-Lys-Gly-Arg-Gly-Gly-Lys ({PEG}-FCTYSIPPQCYGGIPIGGHAEGTFTSDVSSYLEGQAAKEFIAWLVKGRGGK; disulfide 2-10 (inferred); reading uncertain; also: printed as PEG-Phe-Cys-Thr-Tyr-Ser-Ile-Pro-Pro-Gln-Cys-Tyr-Gly-Gly-Ile-Pro-Ile-Gly-Gly-His-Ala-Glu-Gly-Thr-Phe-Thr-Ser-Asp-Val-Ser-Ser-Tyr-Leu-Glu-Gly-Gln-Ala-Ala-Lys-Glu-Phe-Ile-Ala-Trp-Leu-Val-Lys-Gly-Arg-Gly-Gly-Lys) [N-Terminal PEGylated SEQ ID NO: 204] | did not show any significant differences in their hypoglycemic activity compared to the unmodified molecules | 

Reference: patent US20230416329A1, “A PEPTIDE WITH DISULFIDE BONDS AND INHIBITORY ACTIVITY AGAINST SERINE PROTEASES, DERIVED HYBRID PEPTIDES THEREOF, AND USES THEREOF” (INSTITUTE OF MATERIA MEDICA , CHINESE ACADEMY OF MEDICAL …, priority 2020, published 2023)
